Test results published in PubChem BioAssay (NCI).
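In this assay, cells in 96-well plates receive the compound at five concentrations for 48 hours. Endpoints are linearly interpolated between the surrounding concentrations. Abbreviation: GI50, concentration required for 50% inhibition of growth. At the TGI there is no net growth.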

tested on: NCI-H460 lung; assay: NCI-60 cell line screen, 48 h

SMILES | TGI [µM]
COC(=O)c1cc2c3c(cc(NCCN)c2[nH]1)N(C(=O)c1cc2cc(OC)c(OC)c(OC)c2[nH]1)CC3CCl (configuration not stated) | 0.536
CN(C)c1nc(=NCc2ccccn2)ss1 | > 10

tested on: OVCAR-5 ovarian; assay: NCI-60 cell line screen, 48 h

SMILES | TGI [µM] | GI50 [µM]
COc1cc(OC)c(C2c3cc4c(cc3OC(N3CCOCC3)C2C)OCO4)c(OC)c1 (configuration not stated) | > 100 | 
CC1=C(C(=O)NNC(=O)CC#N)CC(C(=O)NNC(=O)CC#N)=C(C)N1 | > 100 | 
COC(=O)c1cc(C(=O)OC)cc(-c2ccc3c(c2)-c2nc4c(c(-c5ccc(OC)cc5)c2CC3)CCc2ccc(-c3cc(C(=O)OC)cc(C(=O)OC)c3)cc2-4)c1 | 31.8 | 
CCCCCCNc1nc(NCCCCCC)c2[nH]c(NCCCCCC)nc2n1 | 24.7 | 9.31
COC(=O)c1cc2c3c(cc(NCCN)c2[nH]1)N(C(=O)c1cc2cc(OC)c(OC)c(OC)c2[nH]1)CC3CCl (configuration not stated) | 0.42 | 
CN(C)c1nc(=NCc2ccccn2)ss1 | > 10 | 

tested on: MCF7 breast; assay: NCI-60 cell line screen, 48 h

SMILES | TGI [µM] | GI50 [µM]
COc1cc(OC)c(C2c3cc4c(cc3OC(N3CCOCC3)C2C)OCO4)c(OC)c1 (configuration not stated) | > 100 | 
CCN(CC)CCCNc1ccc([N+](=O)[O-])c2nc3ccc(OC)cc3c(NCCCN(CC)CC)c12 | 3.56 | 
CC1=C(C(=O)NNC(=O)CC#N)CC(C(=O)NNC(=O)CC#N)=C(C)N1 | > 100 | 
COC(=O)c1cc(C(=O)OC)cc(-c2ccc3c(c2)-c2nc4c(c(-c5ccc(OC)cc5)c2CC3)CCc2ccc(-c3cc(C(=O)OC)cc(C(=O)OC)c3)cc2-4)c1 | > 100 | 
CCCCCCNc1nc(NCCCCCC)c2[nH]c(NCCCCCC)nc2n1 | 15.8 | 3.22
CN(C)c1nc(=NCc2ccccn2)ss1 | > 10 | 

tested on: NCI-H226 lung; assay: NCI-60 cell line screen, 48 h

SMILES | TGI [µM] | GI50 [µM]
CC1=C(C(=O)NNC(=O)CC#N)CC(C(=O)NNC(=O)CC#N)=C(C)N1 | > 100 | 
COC(=O)c1cc(C(=O)OC)cc(-c2ccc3c(c2)-c2nc4c(c(-c5ccc(OC)cc5)c2CC3)CCc2ccc(-c3cc(C(=O)OC)cc(C(=O)OC)c3)cc2-4)c1 | > 100 | 
CCCCCCNc1nc(NCCCCCC)c2[nH]c(NCCCCCC)nc2n1 | 34.3 | 15.4
COC(=O)c1cc2c3c(cc(NCCN)c2[nH]1)N(C(=O)c1cc2cc(OC)c(OC)c(OC)c2[nH]1)CC3CCl (configuration not stated) | 0.178 | 
CN(C)c1nc(=NCc2ccccn2)ss1 | > 10 | 

tested on: U251 CNS; assay: NCI-60 cell line screen, 48 h

SMILES | TGI [µM] | GI50 [µM]
CC1=C(C(=O)NNC(=O)CC#N)CC(C(=O)NNC(=O)CC#N)=C(C)N1 | > 100 | 
COC(=O)c1cc(C(=O)OC)cc(-c2ccc3c(c2)-c2nc4c(c(-c5ccc(OC)cc5)c2CC3)CCc2ccc(-c3cc(C(=O)OC)cc(C(=O)OC)c3)cc2-4)c1 | > 100 | 
CCCCCCNc1nc(NCCCCCC)c2[nH]c(NCCCCCC)nc2n1 | 8.98 | 2.18
COC(=O)c1cc2c3c(cc(NCCN)c2[nH]1)N(C(=O)c1cc2cc(OC)c(OC)c(OC)c2[nH]1)CC3CCl (configuration not stated) | 0.0366 | 
CN(C)c1nc(=NCc2ccccn2)ss1 | > 10 | 

tested on: IGROV1 ovarian; assay: NCI-60 cell line screen, 48 h

SMILES | TGI [µM] | GI50 [µM]
COc1cc(OC)c(C2c3cc4c(cc3OC(N3CCOCC3)C2C)OCO4)c(OC)c1 (configuration not stated) | > 100 | 
CCN(CC)CCCNc1ccc([N+](=O)[O-])c2nc3ccc(OC)cc3c(NCCCN(CC)CC)c12 | > 10 | 
CC1=C(C(=O)NNC(=O)CC#N)CC(C(=O)NNC(=O)CC#N)=C(C)N1 | > 100 | 
CCCCCCNc1nc(NCCCCCC)c2[nH]c(NCCCCCC)nc2n1 | > 53.2 | 19
CN(C)c1nc(=NCc2ccccn2)ss1 | > 10 | 

tested on: UO-31 renal; assay: NCI-60 cell line screen, 48 h

SMILES | TGI [µM] | GI50 [µM]
COc1cc(OC)c(C2c3cc4c(cc3OC(N3CCOCC3)C2C)OCO4)c(OC)c1 (configuration not stated) | > 100 | 
CC1=C(C(=O)NNC(=O)CC#N)CC(C(=O)NNC(=O)CC#N)=C(C)N1 | > 100 | 
COC(=O)c1cc(C(=O)OC)cc(-c2ccc3c(c2)-c2nc4c(c(-c5ccc(OC)cc5)c2CC3)CCc2ccc(-c3cc(C(=O)OC)cc(C(=O)OC)c3)cc2-4)c1 | > 100 | 
CCCCCCNc1nc(NCCCCCC)c2[nH]c(NCCCCCC)nc2n1 | 35 | 14
COC(=O)c1cc2c3c(cc(NCCN)c2[nH]1)N(C(=O)c1cc2cc(OC)c(OC)c(OC)c2[nH]1)CC3CCl (configuration not stated) | 0.65 | 
CN(C)c1nc(=NCc2ccccn2)ss1 | > 10 | 

tested on: DU-145 prostate; assay: NCI-60 cell line screen, 48 h

SMILES | TGI [µM] | GI50 [µM]
COc1cc(OC)c(C2c3cc4c(cc3OC(N3CCOCC3)C2C)OCO4)c(OC)c1 (configuration not stated) | > 100 | 
CCN(CC)CCCNc1ccc([N+](=O)[O-])c2nc3ccc(OC)cc3c(NCCCN(CC)CC)c12 | > 10 | 
CC1=C(C(=O)NNC(=O)CC#N)CC(C(=O)NNC(=O)CC#N)=C(C)N1 | > 100 | 
COC(=O)c1cc(C(=O)OC)cc(-c2ccc3c(c2)-c2nc4c(c(-c5ccc(OC)cc5)c2CC3)CCc2ccc(-c3cc(C(=O)OC)cc(C(=O)OC)c3)cc2-4)c1 | > 100 | 
CCCCCCNc1nc(NCCCCCC)c2[nH]c(NCCCCCC)nc2n1 | 25.4 | 12.8
COC(=O)c1cc2c3c(cc(NCCN)c2[nH]1)N(C(=O)c1cc2cc(OC)c(OC)c(OC)c2[nH]1)CC3CCl (configuration not stated) | 0.0516 | 
CN(C)c1nc(=NCc2ccccn2)ss1 | > 10 | 

tested on: SN12C renal; assay: NCI-60 cell line screen, 48 h

SMILES | TGI [µM] | GI50 [µM]
COc1cc(OC)c(C2c3cc4c(cc3OC(N3CCOCC3)C2C)OCO4)c(OC)c1 (configuration not stated) | > 100 | 
CCN(CC)CCCNc1ccc([N+](=O)[O-])c2nc3ccc(OC)cc3c(NCCCN(CC)CC)c12 | 5.89 | 
CC1=C(C(=O)NNC(=O)CC#N)CC(C(=O)NNC(=O)CC#N)=C(C)N1 | > 100 | 
COC(=O)c1cc(C(=O)OC)cc(-c2ccc3c(c2)-c2nc4c(c(-c5ccc(OC)cc5)c2CC3)CCc2ccc(-c3cc(C(=O)OC)cc(C(=O)OC)c3)cc2-4)c1 | > 100 | 
CCCCCCNc1nc(NCCCCCC)c2[nH]c(NCCCCCC)nc2n1 | 17.6 | 3.75
CN(C)c1nc(=NCc2ccccn2)ss1 | > 10 | 

tested on: BT-549 breast; assay: NCI-60 cell line screen, 48 h

SMILES | TGI [µM] | GI50 [µM]
CC1=C(C(=O)NNC(=O)CC#N)CC(C(=O)NNC(=O)CC#N)=C(C)N1 | > 100 | 
COC(=O)c1cc(C(=O)OC)cc(-c2ccc3c(c2)-c2nc4c(c(-c5ccc(OC)cc5)c2CC3)CCc2ccc(-c3cc(C(=O)OC)cc(C(=O)OC)c3)cc2-4)c1 | > 100 | 
CCCCCCNc1nc(NCCCCCC)c2[nH]c(NCCCCCC)nc2n1 | 25.1 | 7.47

tested on: SK-MEL-28 melanoma; assay: NCI-60 cell line screen, 48 h

SMILES | TGI [µM] | GI50 [µM]
COc1cc(OC)c(C2c3cc4c(cc3OC(N3CCOCC3)C2C)OCO4)c(OC)c1 (configuration not stated) | > 100 | 
CCN(CC)CCCNc1ccc([N+](=O)[O-])c2nc3ccc(OC)cc3c(NCCCN(CC)CC)c12 | > 10 | 
CC1=C(C(=O)NNC(=O)CC#N)CC(C(=O)NNC(=O)CC#N)=C(C)N1 | > 100 | 
COC(=O)c1cc(C(=O)OC)cc(-c2ccc3c(c2)-c2nc4c(c(-c5ccc(OC)cc5)c2CC3)CCc2ccc(-c3cc(C(=O)OC)cc(C(=O)OC)c3)cc2-4)c1 | > 100 | 
CCCCCCNc1nc(NCCCCCC)c2[nH]c(NCCCCCC)nc2n1 | 24.6 | 12.1
COC(=O)c1cc2c3c(cc(NCCN)c2[nH]1)N(C(=O)c1cc2cc(OC)c(OC)c(OC)c2[nH]1)CC3CCl (configuration not stated) | 0.48 | 
CN(C)c1nc(=NCc2ccccn2)ss1 | > 10 | 

tested on: CAKI-1 renal; assay: NCI-60 cell line screen, 48 h

SMILES | TGI [µM] | GI50 [µM]
CCN(CC)CCCNc1ccc([N+](=O)[O-])c2nc3ccc(OC)cc3c(NCCCN(CC)CC)c12 | > 10 | 
CC1=C(C(=O)NNC(=O)CC#N)CC(C(=O)NNC(=O)CC#N)=C(C)N1 | > 100 | 
COC(=O)c1cc(C(=O)OC)cc(-c2ccc3c(c2)-c2nc4c(c(-c5ccc(OC)cc5)c2CC3)CCc2ccc(-c3cc(C(=O)OC)cc(C(=O)OC)c3)cc2-4)c1 | > 100 | 
CCCCCCNc1nc(NCCCCCC)c2[nH]c(NCCCCCC)nc2n1 | 50.9 | 16.2
CN(C)c1nc(=NCc2ccccn2)ss1 | > 10 | 

tested on: OVCAR-8 ovarian; assay: NCI-60 cell line screen, 48 h

SMILES | TGI [µM] | GI50 [µM]
COc1cc(OC)c(C2c3cc4c(cc3OC(N3CCOCC3)C2C)OCO4)c(OC)c1 (configuration not stated) | > 100 | 
CCN(CC)CCCNc1ccc([N+](=O)[O-])c2nc3ccc(OC)cc3c(NCCCN(CC)CC)c12 | 2.7 | 
CC1=C(C(=O)NNC(=O)CC#N)CC(C(=O)NNC(=O)CC#N)=C(C)N1 | > 100 | 
CCCCCCNc1nc(NCCCCCC)c2[nH]c(NCCCCCC)nc2n1 | 30.8 | 9.96
CN(C)c1nc(=NCc2ccccn2)ss1 | > 10 | 

tested on: UACC-62 melanoma; assay: NCI-60 cell line screen, 48 h

SMILES | TGI [µM] | GI50 [µM]
COc1cc(OC)c(C2c3cc4c(cc3OC(N3CCOCC3)C2C)OCO4)c(OC)c1 (configuration not stated) | > 100 | 
CCN(CC)CCCNc1ccc([N+](=O)[O-])c2nc3ccc(OC)cc3c(NCCCN(CC)CC)c12 | > 10 | 
COC(=O)c1cc(C(=O)OC)cc(-c2ccc3c(c2)-c2nc4c(c(-c5ccc(OC)cc5)c2CC3)CCc2ccc(-c3cc(C(=O)OC)cc(C(=O)OC)c3)cc2-4)c1 | > 100 | 
CCCCCCNc1nc(NCCCCCC)c2[nH]c(NCCCCCC)nc2n1 | 28.6 | 13.4
COC(=O)c1cc2c3c(cc(NCCN)c2[nH]1)N(C(=O)c1cc2cc(OC)c(OC)c(OC)c2[nH]1)CC3CCl (configuration not stated) | 0.176 | 
CN(C)c1nc(=NCc2ccccn2)ss1 | > 10 | 

tested on: MDA-N; assay: NCI-60 cell line screen, 48 h

SMILES | TGI [µM]
COc1cc(OC)c(C2c3cc4c(cc3OC(N3CCOCC3)C2C)OCO4)c(OC)c1 (configuration not stated) | > 100
CCN(CC)CCCNc1ccc([N+](=O)[O-])c2nc3ccc(OC)cc3c(NCCCN(CC)CC)c12 | > 10
CC1=C(C(=O)NNC(=O)CC#N)CC(C(=O)NNC(=O)CC#N)=C(C)N1 | > 100
COC(=O)c1cc(C(=O)OC)cc(-c2ccc3c(c2)-c2nc4c(c(-c5ccc(OC)cc5)c2CC3)CCc2ccc(-c3cc(C(=O)OC)cc(C(=O)OC)c3)cc2-4)c1 | > 100
COC(=O)c1cc2c3c(cc(NCCN)c2[nH]1)N(C(=O)c1cc2cc(OC)c(OC)c(OC)c2[nH]1)CC3CCl (configuration not stated) | 0.207
CN(C)c1nc(=NCc2ccccn2)ss1 | > 10

tested on: KM12 colon; assay: NCI-60 cell line screen, 48 h

SMILES | TGI [µM]
COc1cc(OC)c(C2c3cc4c(cc3OC(N3CCOCC3)C2C)OCO4)c(OC)c1 (configuration not stated) | > 100
CCN(CC)CCCNc1ccc([N+](=O)[O-])c2nc3ccc(OC)cc3c(NCCCN(CC)CC)c12 | 3.05
CC1=C(C(=O)NNC(=O)CC#N)CC(C(=O)NNC(=O)CC#N)=C(C)N1 | > 100
COC(=O)c1cc(C(=O)OC)cc(-c2ccc3c(c2)-c2nc4c(c(-c5ccc(OC)cc5)c2CC3)CCc2ccc(-c3cc(C(=O)OC)cc(C(=O)OC)c3)cc2-4)c1 | > 100
